Assay results: PMC7899551, “Phase 1 study of Z-endoxifen in patients with advanced gynecologic, desmoid, and hormone receptor-positive solid tumors” (Oncotarget, 2021)

Legend:
[1] = Safety: adverse events (CTCAE v4.0), DLT, MTD; type: in vivo
Protocol: This was an open-label trial of Z-endoxifen in patients with advanced solid tumors (https://clinicaltrials.gov/ identifier: NCT01273168). Z-endoxifen-HCl was supplied by the Pharmaceutical Management Branch, National Cancer Institute, as 20 and 40 mg capsules; agent was administered orally once daily on a continuous schedule in 28-day cycles with a starting dose of 20 mg/day taken either 1 hour before or 2 hours after meals. Dose escalation followed a traditional 3+3 design in which patients were dose-escalated to the next dose level (DL) in cohorts of 3 patients until dose-limiting toxicity (DLT) was observed. […] Eight dose levels (DL1-8) were examined: 20, 40, 60, 100, 140, 200, 280, and 360 mg, respectively. Two patients at DL8 received the free base form of Z-endoxifen on day 1 rather than the hydrochloride salt to assess the pharmacokinetics of that formulation.
Toxicities were graded using Common Terminology Criteria for Adverse Events (CTCAE) version 4.0. Toxicities were required to resolve to grade 2 or below prior to initiation of the next cycle. Occurrence of a DLT was to result in a dose reduction following resolution to grade ≤ 2. No more than 2 dose reductions were allowed per patient on study. The MTD was defined as the highest dose level at which no more than 1 in 6 patients experienced a DLT.

[2] = system: ER+ metastatic breast cancer; parameters: method as in PMID 28854070; settings: cited from earlier work

CC/C(=C(\c1ccc(O)cc1)c1ccc(OCCNC)cc1)c1ccccc1 [Z-endoxifen]
Anemia, grade 2 ([1]; DL2 40 mg, n = 6): 1 patients
Elevated ALT, grade 2 ([1]; DL2 40 mg, n = 6): 1 patients
Fatigue, grade 2 ([1]; DL2 40 mg, n = 6): 1 patients
Lymphopenia, grade 2 ([1]; DL2 40 mg, n = 6): 3 patients
Mucositis (oral), grade 2 ([1]; DL2 40 mg, n = 6): 1 patients
Thromboembolic event, grade 2 ([1]; DL2 40 mg, n = 6): 1 patients
Thromboembolic event, grade 4 ([1]; DL2 40 mg, n = 6): 1 patients
Vestibular disorder, grade 2 ([1]; DL2 40 mg, n = 6): 1 patients
DLT ([1]; DL2 (40 mg/day), patient 4): grade 4 pulmonary embolism
Anemia, grade 2 ([1]; DL3 60 mg, n = 3): 1 patients
Leukopenia, grade 2 ([1]; DL3 60 mg, n = 3): 1 patients
Neutropenia, grade 2 ([1]; DL3 60 mg, n = 3): 1 patients
Anemia, grade 2 ([1]; DL4 100 mg, n = 3): 1 patients
Lymphopenia, grade 2 ([1]; DL4 100 mg, n = 3): 1 patients
Fatigue, grade 2 ([1]; DL5 140 mg, n = 3): 1 patients
Leukopenia, grade 2 ([1]; DL5 140 mg, n = 3): 1 patients
Neutropenia, grade 2 ([1]; DL5 140 mg, n = 3): 1 patients
Reflux, grade 2 ([1]; DL5 140 mg, n = 3): 1 patients
Fatigue, grade 2 ([1]; DL6 200 mg, n = 3): 1 patients
Hypertension, grade 2 ([1]; DL6 200 mg, n = 3): 1 patients
Abdominal pain, grade 3 ([1]; DL7 280 mg, n = 7): 1 patients
Anemia, grade 2 ([1]; DL7 280 mg, n = 7): 2 patients
Diarrhea, grade 3 ([1]; DL7 280 mg, n = 7): 1 patients
Elevated ALT, grade 2 ([1]; DL7 280 mg, n = 7): 1 patients
Elevated ALT, grade 3 ([1]; DL7 280 mg, n = 7): 1 patients
Elevated AST, grade 2 ([1]; DL7 280 mg, n = 7): 1 patients
Fatigue, grade 2 ([1]; DL7 280 mg, n = 7): 1 patients
Hypophosphatemia, grade 2 ([1]; DL7 280 mg, n = 7): 1 patients
Hypophosphatemia, grade 4 ([1]; DL7 280 mg, n = 7): 1 patients
Lymphopenia, grade 2 ([1]; DL7 280 mg, n = 7): 1 patients
DLT ([1]; DL7 (280 mg/day), patient 22): grade 3 ALT elevation
Anemia, grade 2 ([1]; DL8 360 mg, n = 12): 4 patients
Anemia, grade 3 ([1]; DL8 360 mg, n = 12): 1 patients
Colonic perforation, grade 4 ([1]; DL8 360 mg, n = 12): 1 patients
Constipation, grade 2 ([1]; DL8 360 mg, n = 12): 1 patients
Dehydration, grade 3 ([1]; DL8 360 mg, n = 12): 1 patients
Dyspepsia, grade 2 ([1]; DL8 360 mg, n = 12): 1 patients
Elevated ALT, grade 2 ([1]; DL8 360 mg, n = 12): 2 patients
Elevated ALT, grade 3 ([1]; DL8 360 mg, n = 12): 1 patients
Elevated AST, grade 2 ([1]; DL8 360 mg, n = 12): 1 patients
Fatigue, grade 2 ([1]; DL8 360 mg, n = 12): 1 patients
Hyponatremia, grade 3 ([1]; DL8 360 mg, n = 12): 1 patients
Hypophosphatemia, grade 2 ([1]; DL8 360 mg, n = 12): 2 patients
Hypophosphatemia, grade 3 ([1]; DL8 360 mg, n = 12): 2 patients
Leukopenia, grade 2 ([1]; DL8 360 mg, n = 12): 1 patients
Lymphopenia, grade 2 ([1]; DL8 360 mg, n = 12): 5 patients
Lymphopenia, grade 3 ([1]; DL8 360 mg, n = 12): 1 patients
Nausea, grade 2 ([1]; DL8 360 mg, n = 12): 1 patients
Rash, grade 2 ([1]; DL8 360 mg, n = 12): 1 patients
Stroke, grade 2 ([1]; DL8 360 mg, n = 12): 1 patients
Thromboembolic event, grade 2 ([1]; DL8 360 mg, n = 12): 1 patients
adverse event at end of cycle 1, disease most likely cause ([1]; DL8 (360 mg), patient with fallopian tube carcinoma): grade 4 colonic perforation
grade 4 adverse events potentially related to the study agent ([1]; all dose levels): Three grade 4 adverse events
anemia, grade ≥ 2 (grades 2 and 3), study-related ([1]; of 40 patients enrolled): 10 patients
lymphopenia, grade ≥ 2 (grades 2 and 3), study-related ([1]; of 40 patients enrolled): 11 patients
tolerability ([1]; oral daily, 20-360 mg/day): generally well tolerated
maximum tolerated dose ([1]; oral daily, up to 360 mg/day): No maximum tolerated dose was established
Plasma concentration on day 1 ([2]; 160 mg dose, 38 patients with ER+ metastatic breast cancer): 333 ng/mL
overall CBR ([2]; previous trial, highest dose 160 mg/day): 26.3%
